Tested on: HEK293T cells stably transfected with 8XTBD luciferase reporter and pRLTK
Experiment: YAP Reporter Assay (8XTBD-driven firefly luciferase)
Format: cell-based
Conditions: Homo sapiens, HEK-293T; HEK293T 8XTBD luciferase reporter; 24-hr incubation with compounds; top concentration 3 μM, 10 points
Experimental: HEK293T cells stably transfected with 8XTBD luciferase reporter and pRLTK in 384-well plates were treated with the test compounds, starting from 3 μM (final concentration in assay plate), 1:3 dilution, and 10 points in quadruplicates. Post 24-hr incubation with compounds at 37° C. and 5% CO2, cells were lysed and 8XTBD-driven firefly luciferase and control TK-driven renilla luciferase activities were measured using Promega Dual-Luciferase Reporter Assay System.
Reagents: The reagents used for this study are: DMEM: Invitrogen #11960077, Dual-Glo Luciferase Assay System: Promega-E2980, Puromycin Dihydrochloride: Invitrogen-A1113803, 384-well plate: PerkinElmer-6007480, L-GLUTAMINE: Invitrogen-25030164, Hygromycin B: Invitrogen-10687010, and Penicillin-Streptomycin: Merk-TMS-AB2-C
Media: The media used for this assay were: Culture Medium: DMEM+1 ug/mL puromycin+200 ug/mL hygromycin (with 10% FBS+1 mM L-glutamine); and Assay Medium: DMEM (with 10% FBS+1 mM L-glutamine+1×P/S).
Cell Plating: The appropriate media was warmed at 37° C. by water bath: Culture Medium, Assay Medium, 1*D-PBS, 0.05% trypsin-EDTA. The cells were trypsinized after removing all media, then washed with 1*sterile D-PBS and then with 2 ml 0.05% trypsin-EDTA. The cells were then incubated at RT for one minute. Then 10 ml/75 cm2 flask Assay Medium was added to each flask. Using a 10 ml pipette, the cells were then gently resuspended in the media, until the clumps completely disappeared. The cells were then transferred into 50 ml centrifuge tubes and were centrifuged at 800 rpm for 5 mins. The medium was removed and the cells were resuspended with Assay Medium. An aliquot of cells was used to count the cell density (cells/ml). The cell suspension was then diluted with Assay Medium to a concentration of 6×10^4 cells/ml. 50 ul cells suspension was then plated to 384-well plate (PerkinElmer-6007480), 3×10^3 cells/well and the cells were incubated in an incubator at 37° C., 5% CO2.
Compound Treatment: In the afternoon (incubation of the plate with 3-4 hrs), the test compounds were added by Echo, starting from 3 uM (final concentration in the assay plate), 1:3 dilution, 10 points, quadruplicates. The plate was placed at 37° C., 5% CO2 incubator for 24 hrs.
Detection: The Dual-Glo Luciferase Reagent was prepared by transferring the contents of one bottle of Dual-Glo Luciferase Buffer to one bottle of Dual-Glo Luciferase Substrate to create the Dual-Glo Luciferase Reagent. Mixing was performed by inversion until the substrate was thoroughly dissolved. After mixing, the reagent was aliquoted into 15 ml tubes. In the afternoon (24 hrs post compound treatment), the DMEM+medium in the 384 well plates were aspirated by Microplate Washer.
Measuring firefly luciferase activity: 20 ul Dual-Glo Luciferase Reagent was added to the 384-well plates. The plates were protected from light to prevent interference with the assay. The plates were shaken for 1 min followed centrifuging plates at 1000 rpm for 30 seconds. After waiting at least 10 minutes, the firefly luminescence was measured by Envision.
Measuring renilla luciferase activity: 20 ul Stop-Glo Reagent was added to the 384-well plates. The plates were shaken for 1 min and then centrifuged at 1000 rpm for 30 seconds. After waiting at least 10 minutes, the renilla luminescence was measured by Envision.
Compound IC50 and maximum inhibition on the firefly luciferase and renilla luciferase activities were reported separately.

Row | SMILES | IC50 [nM]
1 | CC1(c2nnc(-c3cccnc3Nc3ccc(C(F)(F)F)cc3)o2)OCCNC1=O (stereo not drawn) [Compound 37, 2-methyl-2-(5-(2-((4-(trifluoromethyl)phenyl)amino)pyridin-3-yl)-1,3,4-oxadiazol-2-yl)morpholin-3-one] | ≤ 100
2 | CC1(c2nnc(-c3cccnc3Nc3ccc(C(F)(F)F)cc3)o2)CC(N)=NC1=O (stereo not drawn) [Compound 38, 2-amino-4-methyl-4-[5-[2-[4-(trifluoromethyl)anilino]-3-pyridyl]-1,3,4-oxadiazol-2-yl]-3H-pyrrol-5-one] | ≤ 100
3 | C[C@@]1(c2nnc(-c3cccnc3Nc3ccc(C(F)(F)F)cc3)o2)CCCNC1=O [Compound 39, (S)-3-methyl-3-(5-(2-((4-(trifluoromethyl)phenyl)amino)pyridin-3-yl)-1,3,4-oxadiazol-2-yl)piperidin-2-one] | ≤ 100
4 | C[C@]1(c2nnc(-c3cccnc3Nc3ccc(C(F)(F)F)cc3)o2)CCCNC1=O [Compound 40, (R)-3-methyl-3-(5-(2-((4-(trifluoromethyl)phenyl)amino)pyridin-3-yl)-1,3,4-oxadiazol-2-yl)piperidin-2-one] | 100 to 1000
5 | C[C@]1(n2nnc(-c3cccnc3Nc3ccc(C(F)(F)F)cc3)n2)CCNC1=O [Compound 42, (3S)-3-methyl-3-[5-[2-[4-(trifluoromethyl)anilino]-3-pyridyl]tetrazol-2-yl]pyrrolidin-2-one] | ≤ 100
6 | C[C@@]1(n2nnc(-c3cccnc3Nc3ccc(C(F)(F)F)cc3)n2)CCNC1=O [Compound 43, (3R)-3-methyl-3-[5-[2-[4-(trifluoromethyl)anilino]-3-pyridyl]tetrazol-2-yl]pyrrolidin-2-one] | ≤ 100
7 | CCN(C#N)Cc1nnc(-c2nccnc2Nc2ccc(C(F)(F)F)cc2)o1 [Compound 44, ethyl-[[5-[3-[4-(trifluoromethyl)anilino]pyrazin-2-yl]-1,3,4-oxadiazol-2-yl]methyl]cyanamide] | ≤ 100
8 | CN(C#N)Cc1nnc(-c2nccnc2Nc2ccc(C(F)(F)F)cc2)o1 [Compound 45, methyl-[[5-[3-[4-(trifluoromethyl)anilino]pyrazin-2-yl]-1,3,4-oxadiazol-2-yl]methyl]cyanamide] | ≤ 100
9 | CNCc1nnc(-c2nccnc2Nc2ccc(C(F)(F)F)cc2)o1 [Compound 48, 3-[5-(methylaminomethyl)-1,3,4-oxadiazol-2-yl]-N-[4-(trifluoromethyl)phenyl]pyrazin-2-amine] | 1000 to 3000

Reference: patent publication US20230106583A1, “HETEROARYL COMPOUNDS” (Vivace Therapeutics, Inc., priority 2019, published 2023)
